# Results reported in patent publication US8551693B2 (priority 2008, dated 2013).
# Read-outs that look alike come from different tables or passages of the source.
# Key:
# [1] = target: T1, Nav1.5^Mut sodium channel (mutated human Nav1.5) (Homo sapiens, UniProt Q14524, F1486Q/K1419C); type: cell-based
# T1 construct: expressed in transfected cells; host or cells: HEK293 cells stably expressing the Cameleon (Venus/CFP) calcium biosensor; clone VC/Nav1.5 #12
# Protocol: VC/Nav1.5 #12 cells were incubated with different concentrations of quinidine (FIG. 6A), sertralin (FIG. 6B) or paroxetine (FIG. 6C), and a first fluorescence reading was performed, (FVenus/FCFP)0. 25 mM Ca^2+ was added to activate the channel and a second fluorescence reading was performed, (FVenus/FCFP)ca2+. […] Error bars represent the standard deviation of experiments performed in triplicate;
# The fluorescence intensity was measured using a Packard Fusion™ Universal Microplate Analyzer. 75,000 cells per well were analyzed in a bath solution containing 140 mM NaCl, 2 mM KCl, 1.5 mM CaCl2, 1 mM MgCl2, 10 mM glucose, and 10 mM Na-HEPES. For calcium measurements, the bath solution contained: 140 mM NaCl, 2 mM KCl, 25 mM CaCl2, 10 mM glucose and 10 mM Na-HEPES. The pH of the bath solutions was adjusted to pH 7.4 using 1N NaOH.
# Dose-response experiments in the presence of known sodium channel blockers (quinidine, sertralin and paroxetine) were performed.
# [2] = tested on: HEK293 Cameleon cell line (intracellular Ca2+); test: Confocal microscopy FRET ratio in HEK293 cell line stably expressing the Cameleon biosensor alone; type: cell-based, human; conditions: 10 μM ionomycin, ratio versus time, FIG. 3B
# Protocol: FIG. 3A: Individual Venus (right panel) and CFP (left panel) fluorescence image taken with a 40× objective. FIG. 3B: Plot of FRET ratio (Venus/CFP) versus time following addition of 10 μM ionomycin;
# A HEK293 cell line stably expressing the Cameleon biosensor alone was treated with ionomycin (10 μM), a calcium ionophore, to raise the intracellular level of Ca^2+, and the FRET ratio was analysed by confocal microscopy.
# [3] = tested on: VC #7 control Cameleon HEK293 cell line; test: Cameleon FRET fluorescence microplate assay in control Cameleon cell line VC #7 (does not express a sodium channel); type: cell-based, human; conditions: VC #7 cell line that does not express a sodium channel; FIG. 4B
# Excerpt: The reporter cell lines described herein are derived from the HEK293 cell line, which, in turn, is derived from human embryonic kidney. […] To generate a Nav1.5^Mut/Cameleon reporter cell line, the first step was to establish a HEK293 cell line which expresses the Cameleon calcium biosensor alone. HEK293 cells were transfected with a vector (pIREShyg3, Clonetech, Cat. No. 631620) encoding the Cameleon construct (as described in Evanko and Haydon, Cell Calcium (2005) 37: 341-348). This cell line that express the Cameleon alone was then stably transfected with the pcDNA4neo-Nav1.5^Mut expression vector (see FIG. 7A for the sequence of Nav1.5^Mut). […] The resulting cell lines were then assessed in patch-clamp for their capacity to produce robust current amplitude.
# Cameleon is a fluorescent biosynthetic Ca^2+ indicator constructed by inserting a Ca^2+ sensor (Calmodulin and M13, a calmodulin-binding protein) between two mutated forms of green fluorescent protein (GFP): the energy acceptor Venus, a derivative of yellow fluorescent protein (YFP), and the energy donor, cyan fluorescent protein (CFP) (Evanko D S and Haydon P G, Cell calcium 2005, 37: 341-348). Cameleon fluorescence is affected by differences in the concentration of Ca^2+ that alter the amount of fluorescence resonance energy transfer (FRET) between CFP and Venus. […]
smiles,measurement,setting,value
C[C@H](CCC(=O)O)C[C@H](C)C[C@H](C)C(=O)/C=C(\O)[C@H](C)C[C@H](C)C/C=C/[C@@H](C)[C@@H](O)[C@@H](C)[C@@H](O)C[C@@H]1CC[C@@](C)([C@H]2CC[C@@](C)([C@@H](C)O)O2)O1 [ionomycin],FRET response to treatment,"[1]; VC/Nav1.5 #12 and #14 cell lines, FIG. 4B",respond
same,FRET ratio (Venus/CFP),[2],increase in the Venus/CFP ratio
same,FRET response to treatment,[3],respond only to ionomycin
Fc1ccc([C@@H]2CCNC[C@H]2COc2ccc3c(c2)OCO3)cc1 [paroxetine],"Delta FRET ratio signal, (FVenus/FCFP)Ca2+/(FVenus/FCFP)0","[1]; VC/Nav1.5 #12 cells, increasing doses of blocker, 25 mM Ca2+ added to activate the channel, compared to control cells receiving buffer only, FIG. 6",decrease in the Delta FRET ratio signal
C=C[C@H]1C[N@@]2CC[C@H]1C[C@@H]2[C@@H](O)c1ccnc2ccc(OC)cc12 [quinidine],"Delta FRET ratio signal, (FVenus/FCFP)Ca2+/(FVenus/FCFP)0",[1],decrease in the Delta FRET ratio signal
CN[C@H]1CC[C@@H](c2ccc(Cl)c(Cl)c2)c2ccccc21 [sertralin],"Delta FRET ratio signal, (FVenus/FCFP)Ca2+/(FVenus/FCFP)0",[1],decrease in the Delta FRET ratio signal
